Molecular target: T1, Type-1 angiotensin II receptor (Oryctolagus cuniculus, UniProt P34976)
T1 sequence (P34976 whole entry): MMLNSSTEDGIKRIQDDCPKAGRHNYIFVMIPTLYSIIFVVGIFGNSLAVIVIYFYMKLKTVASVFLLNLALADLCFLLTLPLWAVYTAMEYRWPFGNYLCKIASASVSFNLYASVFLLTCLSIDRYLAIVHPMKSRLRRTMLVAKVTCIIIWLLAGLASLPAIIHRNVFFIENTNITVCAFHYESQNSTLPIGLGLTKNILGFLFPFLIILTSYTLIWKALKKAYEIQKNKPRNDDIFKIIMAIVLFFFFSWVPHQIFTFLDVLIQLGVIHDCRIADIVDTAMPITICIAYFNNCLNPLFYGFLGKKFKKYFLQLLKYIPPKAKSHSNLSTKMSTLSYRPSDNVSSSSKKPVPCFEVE
Test: Antagonist activity at Oryctolagus cuniculus (rabbit) aortic AT1 receptor

Structure (SMILES)	IC50 (read-out: pIC50 (converted))	IC50 (read-out: IC50)
CCCCNC(=O)c1ccc(Cl)c(-n2nc(CCCC)n(Cc3ccc(-c4ccccc4S(=O)(=O)NC(=O)OC(C)(C)C)cc3F)c2=O)c1	0.178 nM	–
CCCCC(=O)Nc1ccc(Cl)c(-n2nc(CCC)n(Cc3ccc(-c4ccccc4S(=O)(=O)NC(=O)c4cc(Cl)ccc4Cl)cc3F)c2=O)c1	–	0.19 nM

Source: ChEMBL document CHEMBL3045831, “Insight into the structural requirement of aryltriazolinone derivatives as angiotensin II AT1 receptor: 2D and 3D-QSAR k-Nearest Neighbor Molecular Field Analysis approach” (Med Chem Res, 2012)
